# From ChEMBL document CHEMBL5614375, “PepExplainer: An explainable deep learning model for selection-based macrocyclic peptide bioactivity prediction and optimization” (Eur J Med Chem, 2024)
# Bridge positions count the residues as written; N and C are the ends. Peptide text beside a SMILES is read from it.
# Biological target: T1, IL17-RE-IL-17C (Homo sapiens, UniProt Q8NFR9+Q9P0M4)
# T1 sequence (Q9P0M4 whole entry): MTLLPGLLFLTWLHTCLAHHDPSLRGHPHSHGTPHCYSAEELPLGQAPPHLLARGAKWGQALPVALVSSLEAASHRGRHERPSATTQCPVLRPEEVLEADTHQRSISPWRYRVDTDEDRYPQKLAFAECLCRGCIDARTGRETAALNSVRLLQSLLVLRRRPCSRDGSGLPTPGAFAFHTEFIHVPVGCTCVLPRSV
# T1 sequence (Q8NFR9 whole entry): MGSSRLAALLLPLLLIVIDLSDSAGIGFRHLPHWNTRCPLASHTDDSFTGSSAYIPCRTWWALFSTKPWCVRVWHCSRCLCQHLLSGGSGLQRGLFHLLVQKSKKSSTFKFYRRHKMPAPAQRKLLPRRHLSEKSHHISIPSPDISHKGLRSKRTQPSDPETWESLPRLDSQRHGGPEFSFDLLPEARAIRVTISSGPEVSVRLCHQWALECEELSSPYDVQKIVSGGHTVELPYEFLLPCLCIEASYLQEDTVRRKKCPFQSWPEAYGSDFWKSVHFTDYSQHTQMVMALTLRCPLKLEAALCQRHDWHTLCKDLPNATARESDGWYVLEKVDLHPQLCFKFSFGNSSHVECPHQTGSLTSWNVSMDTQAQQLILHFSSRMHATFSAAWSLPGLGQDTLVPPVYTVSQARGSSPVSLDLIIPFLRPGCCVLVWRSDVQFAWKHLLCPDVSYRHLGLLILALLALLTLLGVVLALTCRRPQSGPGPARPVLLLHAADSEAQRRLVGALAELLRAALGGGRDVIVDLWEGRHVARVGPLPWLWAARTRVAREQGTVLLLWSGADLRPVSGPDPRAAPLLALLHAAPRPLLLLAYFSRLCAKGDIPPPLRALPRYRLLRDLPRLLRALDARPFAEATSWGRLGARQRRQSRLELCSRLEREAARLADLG
# Assay: Inhibition of interleukin-17RE/biotinylated IL-17C protein-protein interaction (unknown origin) incubated for 1 hrs by competitive ELISA
# Format: protein-complex assay
row,SMILES,IC50 [nM]
1,CC[C@H](C)[C@@H]1NC(=O)[C@H](CCCNC(=N)N)NC(=O)[C@H](Cc2ccc(O)cc2)NC(=O)[C@H](Cc2ccc(O)cc2)NC(=O)[C@H](CCC(N)=O)NC(=O)[C@H](Cc2c[nH]cn2)NC(=O)[C@H](Cc2ccc(O)cc2)NC(=O)CSC[C@@H](C(=O)NCC(N)=O)NC(=O)[C@H](C(C)C)NC(=O)[C@H](CC(C)C)NC(=O)[C@H](CCC(=O)O)NC(=O)CNC(=O)[C@H](Cc2ccc(O)cc2)NC(=O)[C@H](CC(C)C)NC1=O ({CH2CO}-YHQYYRILYGELVCG-NH2; thioether N-14),> 30000
2,CC[C@H](C)[C@@H]1NC(=O)[C@H](CCCNC(=N)N)NC(=O)[C@H](Cc2ccc(O)cc2)NC(=O)[C@H](Cc2ccc(O)cc2)NC(=O)[C@H](CCCNC(=N)N)NC(=O)[C@H](Cc2c[nH]cn2)NC(=O)[C@H](Cc2ccc(O)cc2)NC(=O)CSC[C@@H](C(=O)NCC(N)=O)NC(=O)CNC(=O)[C@H](CC(C)C)NC(=O)[C@H](CCC(=O)O)NC(=O)CNC(=O)[C@H](Cc2ccc(O)cc2)NC(=O)[C@H](CC(C)C)NC1=O ({CH2CO}-YHRYYRILYGELGCG-NH2; thioether N-14),108
3,CC[C@H](C)[C@@H]1NC(=O)[C@H](CCCNC(=N)N)NC(=O)[C@H](Cc2ccc(O)cc2)NC(=O)[C@H](Cc2ccc(O)cc2)NC(=O)[C@H](Cc2ccc(O)cc2)NC(=O)[C@H](Cc2c[nH]cn2)NC(=O)[C@H](Cc2ccc(O)cc2)NC(=O)CSC[C@@H](C(=O)NCC(N)=O)NC(=O)CNC(=O)[C@H](CC(C)C)NC(=O)[C@H](CCC(=O)O)NC(=O)CNC(=O)[C@H](Cc2ccc(O)cc2)NC(=O)[C@H](CC(C)C)NC1=O ({CH2CO}-YHYYYRILYGELGCG-NH2; thioether N-14),119
4,CC(C)C[C@@H]1NC(=O)[C@H](CC(=O)O)NC(=O)CNC(=O)[C@H](Cc2ccc(O)cc2)NC(=O)[C@H](CC(C)C)NC(=O)[C@H](CO)NC(=O)[C@H](CCCNC(=N)N)NC(=O)[C@H](Cc2ccc(O)cc2)NC(=O)[C@H](Cc2ccc(O)cc2)NC(=O)[C@H](Cc2c[nH]cn2)NC(=O)[C@H](CCC(N)=O)NC(=O)[C@H](Cc2ccc(O)cc2)NC(=O)CSC[C@@H](C(=O)NCC(N)=O)NC(=O)CNC1=O ({CH2CO}-YQHYYRSLYGDLGCG-NH2; thioether N-14),> 30000
